From PubChem BioAssay AID2060884 (Molecular Pharmacology Branch, DTP, NCI, 2025)
Values belong to the compound of their own block, whether it stands above or below them.

Test system: NCI-H929 complex spheroids, viability % test/control
Assay: Anticancer human tumor NCI-H929 cell line growth inhibition [RAS];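 note: compound exposure lasted seven days before viability was read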;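 for viability, T/C: 100% = DMSO vehicle control viability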
Conditions: for IC50: curve of first compound; for viability, T/C: stronger effect = lower value
Procedure, shortened: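 Agents were tested in combination matrices in half-log decrements from a top concentration at or near clinical Cmax (10 microM if undetermined). Targets were multi-cell spheroids of tumour lines plus HUVEC and MSC stromal cells.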

[1] = second compound 0.0316 µM, first compound 0.00316 µM
[2] = second compound 0.0316 µM, first compound 0.01 µM
[3] = second compound 0.0316 µM, first compound 0.0316 µM
[4] = second compound 0.0316 µM, first compound 0.1 µM
[5] = second compound 0.1 µM, first compound 0.00316 µM
[6] = second compound 0.1 µM, first compound 0.01 µM
[7] = second compound 0.1 µM, first compound 0.0316 µM
[8] = second compound 0.1 µM, first compound 0.1 µM
[9] = second compound 0.316 µM, first compound 0.00316 µM
[10] = second compound 0.316 µM, first compound 0.01 µM
[11] = second compound 0.316 µM, first compound 0.0316 µM
[12] = second compound 0.316 µM, first compound 0.1 µM
[13] = second compound 1 µM, first compound 0.00316 µM
[14] = second compound 1 µM, first compound 0.01 µM
[15] = second compound 1 µM, first compound 0.0316 µM
[16] = second compound 1 µM, first compound 0.1 µM

IC50 (second compound 0.00316 µM): > 1000 nM | IC50 (second compound 0.01 µM): > 1000 nM | IC50 (second compound 0.0316 µM): > 1000 nM | IC50 (second compound 0.1 µM): > 1000 nM | IC50 (second compound 0.316 µM): > 1000 nM | IC50 (second compound 1 µM): > 1000 nM
SMILES: CCN1CCN(Cc2ccc(Nc3ncc(F)c(-c4cc(F)c5nc(C)n(C(C)C)c5c4)n3)nc2)CC1 + C=CC(=O)N1CCN(c2nc(OCC3CCCN3C)nc3c(F)c(-c4nc(N)cc(C)c4C(F)(F)F)c(Cl)cc23)C(C)C1
viability, T/C (second compound 0.00316 µM, first compound 0.00316 µM): 99.6% | viability, T/C (second compound 0.00316 µM, first compound 0.01 µM): 97.4% | viability, T/C (second compound 0.00316 µM, first compound 0.0316 µM): 108% | viability, T/C (second compound 0.00316 µM, first compound 0.1 µM): 103% | viability, T/C (second compound 0.00316 µM, first compound 0.316 µM): 117% | viability, T/C (second compound 0.00316 µM, first compound 1 µM): 107% | viability, T/C (second compound 0.01 µM, first compound 0.00316 µM): 100% | viability, T/C (second compound 0.01 µM, first compound 0.01 µM): 105% | viability, T/C (second compound 0.01 µM, first compound 0.0316 µM): 105% | viability, T/C (second compound 0.01 µM, first compound 0.1 µM): 109% | viability, T/C (second compound 0.01 µM, first compound 0.316 µM): 118% | viability, T/C (second compound 0.01 µM, first compound 1 µM): 115% | viability, T/C [1]: 102% | viability, T/C [2]: 103% | viability, T/C [3]: 112% | viability, T/C [4]: 109% | viability, T/C (second compound 0.0316 µM, first compound 0.316 µM): 119% | viability, T/C (second compound 0.0316 µM, first compound 1 µM): 113% | viability, T/C [5]: 95.8% | viability, T/C [6]: 105% | viability, T/C [7]: 108% | viability, T/C [8]: 112% | viability, T/C (second compound 0.1 µM, first compound 0.316 µM): 119% | viability, T/C (second compound 0.1 µM, first compound 1 µM): 111% | viability, T/C [9]: 102% | viability, T/C [10]: 105% | viability, T/C [11]: 113% | viability, T/C [12]: 113% | viability, T/C (second compound 0.316 µM, first compound 0.316 µM): 119% | viability, T/C (second compound 0.316 µM, first compound 1 µM): 115% | viability, T/C [13]: 108% | viability, T/C [14]: 111% | viability, T/C [15]: 112% | viability, T/C [16]: 114% | viability, T/C (second compound 1 µM, first compound 0.316 µM): 120% | viability, T/C (second compound 1 µM, first compound 1 µM): 101%

IC50 (second compound 0.0316 µM): 61.6 nM | IC50 (second compound 0.1 µM): 61.7 nM | IC50 (second compound 0.316 µM): 61.5 nM | IC50 (second compound 1 µM): 60.2 nM | IC50 (second compound 3.16 µM): 60.1 nM | IC50 (second compound 10 µM): 44.6 nM
SMILES: CC(C)n1nc(-c2ccc3oc(N)nc3c2)c2c(N)ncnc21 + C#Cc1c(F)ccc2cc(O)cc(-c3ncc4c(N5CC6CCC(C5)N6)nc(OCC56CCCN5CC(F)C6)nc4c3F)c12
viability, T/C (second compound 0.0316 µM, first compound 0.000316 µM): 96.7% | viability, T/C (second compound 0.0316 µM, first compound 0.001 µM): 97.5% | viability, T/C [1]: 103% | viability, T/C [2]: 112% | viability, T/C [3]: 119% | viability, T/C [4]: 9.44% | viability, T/C (second compound 0.1 µM, first compound 0.000316 µM): 96% | viability, T/C (second compound 0.1 µM, first compound 0.001 µM): 101% | viability, T/C [5]: 105% | viability, T/C [6]: 115% | viability, T/C [7]: 118% | viability, T/C [8]: 8.74% | viability, T/C (second compound 0.316 µM, first compound 0.000316 µM): 96.7% | viability, T/C (second compound 0.316 µM, first compound 0.001 µM): 108% | viability, T/C [9]: 104% | viability, T/C [10]: 113% | viability, T/C [11]: 117% | viability, T/C [12]: 7.88% | viability, T/C (second compound 1 µM, first compound 0.000316 µM): 95% | viability, T/C (second compound 1 µM, first compound 0.001 µM): 99.2% | viability, T/C [13]: 109% | viability, T/C [14]: 112% | viability, T/C [15]: 117% | viability, T/C [16]: 5.23% | viability, T/C (second compound 3.16 µM, first compound 0.000316 µM): 99.5% | viability, T/C (second compound 3.16 µM, first compound 0.001 µM): 101% | viability, T/C (second compound 3.16 µM, first compound 0.00316 µM): 107% | viability, T/C (second compound 3.16 µM, first compound 0.01 µM): 111% | viability, T/C (second compound 3.16 µM, first compound 0.0316 µM): 112% | viability, T/C (second compound 3.16 µM, first compound 0.1 µM): 5.57% | viability, T/C (second compound 10 µM, first compound 0.000316 µM): 101% | viability, T/C (second compound 10 µM, first compound 0.001 µM): 97.2% | viability, T/C (second compound 10 µM, first compound 0.00316 µM): 100% | viability, T/C (second compound 10 µM, first compound 0.01 µM): 96.6% | viability, T/C (second compound 10 µM, first compound 0.0316 µM): 69.5% | viability, T/C (second compound 10 µM, first compound 0.1 µM): 4.27%
